Patent US10414811B2, “Protease-resistant lipidated GLP-1 analogs” (MEDIMMUNE LIMITED, priority 2015, dated 2019)
Like-named read-outs stand apart in the source and are kept apart here. Numbered stars: 1 amine (or outer) side, 2 acyl side, 3 side chain; on linkers, the order of the positions; unused ones are H or OH. Square brackets hold non-standard residues; d marks the D form. Side chains are listed from the residue outwards. Peptide text beside a SMILES is read from it. * marks the point of attachment. γGlu = O=C(O)[C@H](CCC(=O)[*:2])N[*:1]; Stearoyl = CCCCCCCCCCCCCCCCCC(=O)*; Palmitoyl = CCCCCCCCCCCCCCCC(=O)*; αMeF = C[C@](N)(Cc1ccccc1)C(=O)O; Myristoyl = CCCCCCCCCCCCCC(=O)*; αMeK = C[C@](N)(CCCCN)C(=O)O; αMeS = C[C@](N)(CO)C(=O)O; AEEA = NCCOCCOCC(=O)O; Aib = CC(C)(N)C(=O)O

Experiments:
Type in all cases: cell-based
[1] = biological target: T1, human glucose-dependent insulinotropic peptide receptor (GIPR) (Homo sapiens, UniProt P48546); test: cAMP assay, human GIPR cells; conditions: cAMP assay
T1 construct: expressed in transfected cells
T1 sequence (P48546 22-466): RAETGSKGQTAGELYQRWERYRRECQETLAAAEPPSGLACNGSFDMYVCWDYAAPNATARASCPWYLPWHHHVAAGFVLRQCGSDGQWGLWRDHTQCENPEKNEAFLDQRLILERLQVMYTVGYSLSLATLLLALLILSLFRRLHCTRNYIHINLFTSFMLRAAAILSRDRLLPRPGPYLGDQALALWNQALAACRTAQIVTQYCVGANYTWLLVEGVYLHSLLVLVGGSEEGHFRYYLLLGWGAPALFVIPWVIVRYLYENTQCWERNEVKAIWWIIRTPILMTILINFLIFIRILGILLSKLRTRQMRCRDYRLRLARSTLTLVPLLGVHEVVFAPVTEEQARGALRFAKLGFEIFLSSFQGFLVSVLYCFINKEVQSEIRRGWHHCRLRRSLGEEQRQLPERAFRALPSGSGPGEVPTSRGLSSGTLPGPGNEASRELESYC
In short: (§1)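 Peptide-stimulated cAMP measured by two-step HTRF after a 30 min room-temperature incubation with receptor-expressing cells (hGLP-1R, hGIPR at 1×10^5 cells/ml; hGCGR at 2×10^5 cells/ml). Duplicate dilutions; EC50 from 4-parameter logistic fit of % Delta F.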

[2] = biological target: T2, GLP-1R (INS1e assay) (Rattus norvegicus, UniProt P32301); test: INS1e assay, cAMP activity at GLP-1R
T2 construct: endogenous in cells; host or cells: INS-1E cells
T2 sequence (P32301 22-463): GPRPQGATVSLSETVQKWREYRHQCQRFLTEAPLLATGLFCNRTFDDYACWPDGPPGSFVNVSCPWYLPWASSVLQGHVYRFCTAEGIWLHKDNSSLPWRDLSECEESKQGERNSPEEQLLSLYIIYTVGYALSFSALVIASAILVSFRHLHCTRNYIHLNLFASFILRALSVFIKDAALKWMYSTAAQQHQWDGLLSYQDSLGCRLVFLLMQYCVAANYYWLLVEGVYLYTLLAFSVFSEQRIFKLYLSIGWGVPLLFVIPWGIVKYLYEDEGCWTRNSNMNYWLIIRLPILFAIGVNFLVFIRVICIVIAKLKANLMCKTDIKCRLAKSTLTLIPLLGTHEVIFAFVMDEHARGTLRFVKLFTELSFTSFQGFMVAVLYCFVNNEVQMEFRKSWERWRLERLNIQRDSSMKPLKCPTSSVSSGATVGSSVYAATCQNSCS
Procedure: cAMP levels are measured using a commercially available cAMP dynamic 2 HTRF kit (Cisbio, Cat #62AM4PEJ), following the two step protocol as per manufacturer's recommendations. In brief; anti-cAMP cryptate (donor fluorophore) and cAMP-d2 (acceptor fluorophore) are made up separately by diluting each 1/20 in conjugate & lysis buffer provided in the kit. 5 μL anti-cAMP cryptate is added to wells of the assay plate, and 5 μL cAMP-d2 is added to wells except non-specific binding (NSB) wells, to which conjugate and lysis buffer are added. […] EC50 values of the synthetic peptides determined in cAMP assays are then determined.

[3] = biological target: T3, human glucagon receptor (GCGR) (Homo sapiens, UniProt P47871); test: cAMP assay, human GCGR cells; conditions: cAMP assay
T3 construct: expressed in transfected cells
In short: as §1

[4] = biological target: T4, human GLP-1 receptor (GLP-1R) (Homo sapiens, UniProt P43220); test: cAMP assay, human GLP-1R cells; conditions: bis-lipidated peptides
T4 construct: expressed in transfected cells
In short: as §1

[5] = first determination (n1), read-out: Primary assay EC50 GIP-R (n1)
[6] = second determination (n2), read-out: Primary assay EC50 GIP-R (n2)
[7] = mono-lipidated peptides, mean of n1 and n2, read-out: INS1e assay EC50 Mean pM GLP-1R
[8] = mono-lipidated peptides, replicate n1, read-out: INS1e assay EC50 GLP-1R n1
[9] = mono-lipidated peptides, replicate n2, read-out: INS1e assay EC50 GLP-1R n2
[10] = first determination (n1), read-out: Primary assay EC50 Gluc-R (n1)
[11] = second determination (n2), read-out: Primary assay EC50 Gluc-R (n2)
[12] = bis-lipidated peptides, mean of n1 and n2, read-out: INS1e assay EC50 Mean pM GLP-1R
[13] = bis-lipidated peptides, replicate n1, read-out: INS1e assay EC50 GLP-1R n1
[14] = bis-lipidated peptides, replicate n2, read-out: INS1e assay EC50 GLP-1R n2
[15] = mean of n1 and n2, read-out: Primary assay EC50 Mean pM GLP-1R
[16] = replicate n1, read-out: Primary assay EC50 GLP-1R n1
[17] = replicate n2, read-out: Primary assay EC50 GLP-1R n2

T4 sequence (P43220 24-463): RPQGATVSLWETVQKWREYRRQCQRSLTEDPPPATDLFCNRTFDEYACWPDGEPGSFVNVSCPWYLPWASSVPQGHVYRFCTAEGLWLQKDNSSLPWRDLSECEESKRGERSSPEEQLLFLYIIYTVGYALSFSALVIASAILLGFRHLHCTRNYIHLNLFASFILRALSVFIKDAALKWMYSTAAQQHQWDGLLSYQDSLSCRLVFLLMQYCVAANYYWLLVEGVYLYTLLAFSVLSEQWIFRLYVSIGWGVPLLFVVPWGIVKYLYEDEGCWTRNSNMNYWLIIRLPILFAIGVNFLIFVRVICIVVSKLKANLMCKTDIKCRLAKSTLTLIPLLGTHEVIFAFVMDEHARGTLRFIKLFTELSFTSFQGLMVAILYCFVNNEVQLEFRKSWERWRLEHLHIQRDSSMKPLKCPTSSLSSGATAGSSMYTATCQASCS
T3 sequence (P47871 26-477): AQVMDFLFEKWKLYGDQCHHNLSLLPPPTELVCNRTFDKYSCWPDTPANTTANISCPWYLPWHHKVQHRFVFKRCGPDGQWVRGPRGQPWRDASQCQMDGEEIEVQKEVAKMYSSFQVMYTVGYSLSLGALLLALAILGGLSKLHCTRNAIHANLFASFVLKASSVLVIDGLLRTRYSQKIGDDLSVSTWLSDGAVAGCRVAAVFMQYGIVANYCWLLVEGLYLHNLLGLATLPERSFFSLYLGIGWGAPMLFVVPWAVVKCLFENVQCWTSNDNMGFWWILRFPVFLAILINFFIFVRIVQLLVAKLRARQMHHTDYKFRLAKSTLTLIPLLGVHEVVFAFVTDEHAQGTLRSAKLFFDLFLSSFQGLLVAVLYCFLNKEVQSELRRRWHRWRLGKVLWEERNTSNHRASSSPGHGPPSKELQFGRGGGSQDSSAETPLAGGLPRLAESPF

| Structure (SMILES) | EC50 [1, 5] [pM] | EC50 [1, 6] [pM] | EC50 [2, 7] [pM] | EC50 [2, 8] [pM] | EC50 [2, 9] [pM] | EC50 [3, 10] [pM] | EC50 [3, 11] [pM] | EC50 [2, 12] [pM] | EC50 [2, 13] [pM] | EC50 [2, 14] [pM] | EC50 [4, 15] [pM] | EC50 [4, 16] [pM] | EC50 [4, 17] [pM] |
| --- | --- | --- | --- | --- | --- | --- | --- | --- | --- | --- | --- | --- | --- |
| CC[C@H](C)[C@H](NC(=O)[C@](C)(Cc1ccccc1)NC(=O)[C@H](CCC(=O)O)NC(=O)[C@](C)(CCCCN)NC(=O)[C@H](C)NC(=O)[C@H](C)NC(=O)[C@H](CCC(=O)O)NC(=O)CNC(=O)[C@H](CCC(=O)O)NC(=O)[C@H](CC(C)C)NC(=O)[C@](C)(Cc1ccccc1)NC(=O)[C@H](CO)NC(=O)[C@](C)(CO)NC(=O)[C@@H](NC(=O)[C@H](CC(=O)O)NC(=O)[C@H](CO)NC(=O)[C@@H](NC(=O)[C@](C)(Cc1ccccc1)NC(=O)[C@H](CO)NC(=O)CNC(=O)[C@H](CCC(=O)O)NC(=O)C(C)(C)NC(=O)[C@@H](N)Cc1c[nH]cn1)[C@@H](C)O)C(C)C)C(=O)N[C@@H](C)C(=O)N[C@@](C)(Cc1ccccc1)C(=O)N[C@H](C(=O)N[C@H](C(=O)N[C@@H](CCC(=O)O)C(=O)NCC(=O)NCC(N)=O)C(C)C)C(C)C [compound 43] (H-H[Aib]EGS[αMeF]TSDV[αMeS]S[αMeF]LEGEAA[αMeK]E[αMeF]IA[αMeF]VVEGG-NH2) | ≥ 31000 | ≥ 31000 | 13 | 16 | 10.5 | ≥ 31000 | ≥ 31000 |  |  |  |  |  |  |
| CCCCCCCCCCCCCCCCCC(=O)NCCOCCOCC(=O)NCCOCCOCC(=O)NCCOCCOCC(=O)NCCCC[C@H](NC(=O)[C@H](C)NC(=O)[C@H](C)NC(=O)[C@H](CCC(=O)O)NC(=O)CNC(=O)[C@H](CCC(=O)O)NC(=O)[C@H](CC(C)C)NC(=O)[C@H](Cc1ccc(O)cc1)NC(=O)[C@H](CO)NC(=O)[C@](C)(CO)NC(=O)[C@@H](NC(=O)[C@H](CC(=O)O)NC(=O)[C@H](CO)NC(=O)[C@@H](NC(=O)[C@](C)(Cc1ccccc1)NC(=O)[C@H](CO)NC(=O)CNC(=O)[C@H](CCC(=O)O)NC(=O)C(C)(C)NC(=O)[C@@H](N)Cc1c[nH]cn1)[C@@H](C)O)C(C)C)C(=O)N[C@@H](CCC(=O)O)C(=O)N[C@@](C)(Cc1ccccc1)C(=O)N[C@H](C(=O)N[C@@H](C)C(=O)N[C@@](C)(Cc1ccccc1)C(=O)N[C@H](C(=O)N[C@H](C(=O)N[C@@](C)(CCCCN)C(=O)NCC(=O)NCC(N)=O)C(C)C)C(C)C)[C@@H](C)CC [compound 53] (H-H[Aib]EGS[αMeF]TSDV[αMeS]SYLEGEAAK([AEEA-AEEA-AEEA-Stearoyl])E[αMeF]IA[αMeF]VV[αMeK]GG-NH2) | ≥ 26000 | ≥ 26000 | 7 | 6.25 | 8.15 | ≥ 26000 | ≥ 26000 |  |  |  |  |  |  |

Second part, the compound after the results:

| EC50 [1, 5] [pM] | EC50 [1, 6] [pM] | EC50 [2, 7] [pM] | EC50 [2, 8] [pM] | EC50 [2, 9] [pM] | EC50 [3, 10] [pM] | EC50 [3, 11] [pM] | EC50 [2, 12] [pM] | EC50 [2, 13] [pM] | EC50 [2, 14] [pM] | EC50 [4, 15] [pM] | EC50 [4, 16] [pM] | EC50 [4, 17] [pM] | Structure (SMILES) |
| --- | --- | --- | --- | --- | --- | --- | --- | --- | --- | --- | --- | --- | --- |
|  |  |  |  |  |  |  | 412 | 376 | 448 | 8.9 | 9.96 | 7.89 | CCCCCCCCCCCCCC(=O)N[C@@H](CCC(=O)NCCOCCOCC(=O)NCCOCCOCC(=O)NCCCC[C@H](NC(=O)[C@H](C)NC(=O)[C@@H](NC(=O)[C@](C)(Cc1ccccc1)NC(=O)[C@H](CCC(=O)O)NC(=O)[C@](C)(CCCCN)NC(=O)[C@H](C)NC(=O)[C@H](C)NC(=O)[C@H](CCC(=O)O)NC(=O)CNC(=O)[C@H](CCC(=O)O)NC(=O)[C@H](CC(C)C)NC(=O)[C@H](CCCCNC(=O)COCCOCCNC(=O)COCCOCCNC(=O)CC[C@H](NC(=O)CCCCCCCCCCCCC)C(=O)O)NC(=O)[C@H](CO)NC(=O)[C@](C)(CO)NC(=O)[C@@H](NC(=O)[C@H](CC(=O)O)NC(=O)[C@H](CO)NC(=O)[C@@H](NC(=O)[C@](C)(Cc1ccccc1)NC(=O)[C@H](CO)NC(=O)CNC(=O)[C@H](CCC(=O)O)NC(=O)C(C)(C)NC(=O)[C@@H](N)Cc1c[nH]cn1)[C@@H](C)O)C(C)C)[C@@H](C)CC)C(=O)N[C@H](C(=O)N[C@H](C(=O)N[C@@H](CCC(=O)O)C(=O)NCC(=O)NCC(N)=O)C(C)C)C(C)C)C(=O)O [compound 408] (H-H[Aib]EGS[αMeF]TSDV[αMeS]SK([AEEA-AEEA-γGlu-Myristoyl])LEGEAA[αMeK]E[αMeF]IAK([AEEA-AEEA-γGlu-Myristoyl])VVEGG-NH2) |
|  |  |  |  |  |  |  | 216 | 183 | 249 | 36.1 | 39.5 | 32.6 | CCCCCCCCCCCCCCCC(=O)N[C@@H](CCC(=O)NCCOCCOCC(=O)NCCOCCOCC(=O)NCCCC[C@H](NC(=O)[C@H](C)NC(=O)[C@@H](NC(=O)[C@](C)(Cc1ccccc1)NC(=O)[C@H](CCC(=O)O)NC(=O)[C@](C)(CCCCN)NC(=O)[C@H](C)NC(=O)[C@H](C)NC(=O)[C@H](CCC(=O)O)NC(=O)CNC(=O)[C@H](CCC(=O)O)NC(=O)[C@H](CC(C)C)NC(=O)[C@H](CCCCNC(=O)COCCOCCNC(=O)COCCOCCNC(=O)CC[C@H](NC(=O)CCCCCCCCCCCCCCC)C(=O)O)NC(=O)[C@H](CO)NC(=O)[C@](C)(CO)NC(=O)[C@@H](NC(=O)[C@H](CC(=O)O)NC(=O)[C@H](CO)NC(=O)[C@@H](NC(=O)[C@](C)(Cc1ccccc1)NC(=O)[C@H](CO)NC(=O)CNC(=O)[C@H](CCC(=O)O)NC(=O)C(C)(C)NC(=O)[C@@H](N)Cc1c[nH]cn1)[C@@H](C)O)C(C)C)[C@@H](C)CC)C(=O)N[C@H](C(=O)N[C@H](C(=O)N[C@@H](CCC(=O)O)C(=O)NCC(=O)NCC(N)=O)C(C)C)C(C)C)C(=O)O [compound 409] (H-H[Aib]EGS[αMeF]TSDV[αMeS]SK([AEEA-AEEA-γGlu-Palmitoyl])LEGEAA[αMeK]E[αMeF]IAK([AEEA-AEEA-γGlu-Palmitoyl])VVEGG-NH2) |
|  |  |  |  |  |  |  | 780 | 698 | 862 | 187 | 248 | 126 | CCCCCCCCCCCCCCCCCC(=O)N[C@@H](CCC(=O)NCCOCCOCC(=O)NCCOCCOCC(=O)NCCCC[C@H](NC(=O)[C@H](C)NC(=O)[C@@H](NC(=O)[C@](C)(Cc1ccccc1)NC(=O)[C@H](CCC(=O)O)NC(=O)[C@](C)(CCCCN)NC(=O)[C@H](C)NC(=O)[C@H](C)NC(=O)[C@H](CCC(=O)O)NC(=O)CNC(=O)[C@H](CCC(=O)O)NC(=O)[C@H](CC(C)C)NC(=O)[C@H](CCCCNC(=O)COCCOCCNC(=O)COCCOCCNC(=O)CC[C@H](NC(=O)CCCCCCCCCCCCCCCCC)C(=O)O)NC(=O)[C@H](CO)NC(=O)[C@](C)(CO)NC(=O)[C@@H](NC(=O)[C@H](CC(=O)O)NC(=O)[C@H](CO)NC(=O)[C@@H](NC(=O)[C@](C)(Cc1ccccc1)NC(=O)[C@H](CO)NC(=O)CNC(=O)[C@H](CCC(=O)O)NC(=O)C(C)(C)NC(=O)[C@@H](N)Cc1c[nH]cn1)[C@@H](C)O)C(C)C)[C@@H](C)CC)C(=O)N[C@H](C(=O)N[C@H](C(=O)N[C@@H](CCC(=O)O)C(=O)NCC(=O)NCC(N)=O)C(C)C)C(C)C)C(=O)O [compound 410] (H-H[Aib]EGS[αMeF]TSDV[αMeS]SK([AEEA-AEEA-γGlu-Stearoyl])LEGEAA[αMeK]E[αMeF]IAK([AEEA-AEEA-γGlu-Stearoyl])VVEGG-NH2) |
